# Like-named read-outs stand apart in the source and are kept apart here.
# What was measured:
# patients with HD [1] = test system: patients with HD;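 for Change from baseline in UHDRS TFC Finance ADL, Δ to placebo: UHDRS Total Functional Capacity items for finances and ADL, each scored 0 to 3, where 3 means normal function and 0 means unable (finances) or total care (ADL)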;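 for Δ to placebo: UHDRS TFC Finance and ADL score, change from baseline: UHDRS Total Functional Capacity items for finances and ADL, each scored 0 to 3, where 3 means normal function and 0 means unable (finances) or total care (ADL)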
# Experimental: Three variables were calculated: (1) The change from baseline to Week 26 and Week 52 in the sum of the UHDRS-TMS items except the Chorea items, (2) The change from baseline to Week 26 and Week 52 in the sum of the UHDRS-TMS items except the Dystonia items, and (3) The change from baseline to Week 26 and Week 52 in the sum of the UHDRS-TMS items except the Chorea and Dystonia items. These variables were analyzed in the same way as the primary efficacy endpoint except that the variable evaluation at baseline were included in the model instead of baseline UHDRS-TMS.
# patients with HD [2] = test system: patients with HD; remark: listed apart in the source;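 for Change from baseline in UHDRS TFC Finance ADL, Δ to placebo: UHDRS Total Functional Capacity items for finances and ADL, each scored 0 to 3, where 3 means normal function and 0 means unable (finances) or total care (ADL)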;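 for Δ to placebo: UHDRS TFC Finance and ADL score, change from baseline: UHDRS Total Functional Capacity items for finances and ADL, each scored 0 to 3, where 3 means normal function and 0 means unable (finances) or total care (ADL)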
# [3] = 45 mg bid, Week 26, Stage 1 BL TFC 11-13
# [4] = 45 mg bid, Week 52, Stage 1 BL TFC 11-13
# [5] = 67.5 mg bid, Week 26, Stage 1 BL TFC 11-13
# [6] = 67.5 mg bid, Week 52, Stage 1 BL TFC 11-13
# [7] = 90 mg bid, Week 26, Stage 1 BL TFC 11-13
# [8] = 90 mg bid, Week 52, Stage 1 BL TFC 11-13
# [9] = 112.5 mg bid, Week 26, Stage 1 BL TFC 11-13
# [10] = 112.5 mg bid, Week 52, Stage 1 BL TFC 11-13
smiles,measurement,setting,value
"CCCN1CCC(c2cccc(S(C)(=O)=O)c2)CC1 [pridopidine, 4-[3-(methylsulfonyl)phenyl]-1-propyl-piperidine]",percentage of patients categorized as Responders within the chorea+dystonia items,"patients with HD [1]; 45 mg bid, BL dystonia ≥4, completed 52 weeks, placebo 66.7%",77.8%
same,"Change from baseline in UHDRS TMS Excluding Dystonia, Δ to placebo","patients with HD [1]; 45 mg bid, Week 26, ALL",1.39
same,"Change from baseline in UHDRS TMS Involuntary Movements, Δ to placebo","patients with HD [1]; 45 mg bid, Week 26, ALL",0.89
same,"Change from baseline in UHDRS TMS Excluding Dystonia, Δ to placebo",patients with HD [1]; [3],−3.6
same,"Change from baseline in UHDRS TMS Involuntary Movements, Δ to placebo",patients with HD [1]; [3],−2.49
same,"Change from baseline in UHDRS TMS Excluding Chorea, Δ to placebo","patients with HD [1]; 45 mg bid, Week 52, ALL",0.05
same,"Change from baseline in UHDRS TMS Involuntary Movements, Δ to placebo","patients with HD [1]; 45 mg bid, Week 52, ALL",0.02
same,"Change from baseline in UHDRS TMS Excluding Chorea, Δ to placebo",patients with HD [1]; [4],−4.09
same,"Change from baseline in UHDRS TMS Involuntary Movements, Δ to placebo",patients with HD [1]; [4],−2.73
same,"Change from baseline in UHDRS TMS Excluding Dystonia, Δ to placebo","patients with HD [1]; 67.5 mg bid, Week 26, ALL",1.97
same,"Change from baseline in UHDRS TMS Involuntary Movements, Δ to placebo","patients with HD [1]; 67.5 mg bid, Week 26, ALL",0.48
same,"Change from baseline in UHDRS TMS Excluding Dystonia, Δ to placebo",patients with HD [1]; [5],−2.2
same,"Change from baseline in UHDRS TMS Involuntary Movements, Δ to placebo",patients with HD [1]; [5],−3.07
same,"Change from baseline in UHDRS TMS Excluding Chorea, Δ to placebo","patients with HD [1]; 67.5 mg bid, Week 52, ALL",1.31
same,"Change from baseline in UHDRS TMS Involuntary Movements, Δ to placebo","patients with HD [1]; 67.5 mg bid, Week 52, ALL",0.8
same,"Change from baseline in UHDRS TMS Excluding Chorea, Δ to placebo",patients with HD [1]; [6],−0.18
same,"Change from baseline in UHDRS TMS Involuntary Movements, Δ to placebo",patients with HD [1]; [6],−0.2
same,"Change from baseline in UHDRS TMS Excluding Dystonia, Δ to placebo","patients with HD [1]; 90 mg bid, Week 26, ALL",1.2
same,"Change from baseline in UHDRS TMS Involuntary Movements, Δ to placebo","patients with HD [1]; 90 mg bid, Week 26, ALL",0.01
same,"Change from baseline in UHDRS TMS Excluding Dystonia, Δ to placebo",patients with HD [1]; [7],−4.35
same,"Change from baseline in UHDRS TMS Involuntary Movements, Δ to placebo",patients with HD [1]; [7],−4
same,"Change from baseline in UHDRS TMS Excluding Chorea, Δ to placebo","patients with HD [1]; 90 mg bid, Week 52, ALL",1.67
same,"Change from baseline in UHDRS TMS Involuntary Movements, Δ to placebo","patients with HD [1]; 90 mg bid, Week 52, ALL",−0.26
same,"Change from baseline in UHDRS TMS Excluding Chorea, Δ to placebo",patients with HD [1]; [8],−4.92
same,"Change from baseline in UHDRS TMS Involuntary Movements, Δ to placebo",patients with HD [1]; [8],−3.8
same,"Change from baseline in UHDRS TMS Excluding Dystonia, Δ to placebo","patients with HD [1]; 112.5 mg bid, Week 26, ALL",2.4
same,"Change from baseline in UHDRS TMS Involuntary Movements, Δ to placebo","patients with HD [1]; 112.5 mg bid, Week 26, ALL",0.76
same,"Change from baseline in UHDRS TMS Excluding Dystonia, Δ to placebo",patients with HD [1]; [9],−4.31
same,"Change from baseline in UHDRS TMS Involuntary Movements, Δ to placebo",patients with HD [1]; [9],−1.64
same,"Change from baseline in UHDRS TMS Excluding Chorea, Δ to placebo","patients with HD [1]; 112.5 mg bid, Week 52, ALL",1.94
same,"Change from baseline in UHDRS TMS Involuntary Movements, Δ to placebo","patients with HD [1]; 112.5 mg bid, Week 52, ALL",0.57
same,"Change from baseline in UHDRS TMS Excluding Chorea, Δ to placebo",patients with HD [1]; [10],−1.59
same,"Change from baseline in UHDRS TMS Involuntary Movements, Δ to placebo",patients with HD [1]; [10],0.8
same,"Δ to placebo: UHDRS TFC Finance and ADL score, change from baseline","patients with HD [2]; 45 mg bid, BL CAG Repeat >44, week 26",0.55
same,"Δ to placebo: UHDRS TFC Finance and ADL score, change from baseline","patients with HD [2]; 45 mg bid, BL TFC≥9, week 26",0.53
same,"Δ to placebo: UHDRS TFC Finance and ADL score, change from baseline","patients with HD [2]; 45 mg bid, BL TFC≥9 and BL TMS 1st 3 Qs, week 26",0.53
same,"Δ to placebo: UHDRS TFC Finance and ADL score, change from baseline","patients with HD [2]; 45 mg bid, BL TFC≥9 and CAG Repeat >44, week 26",0.74
same,"Δ to placebo: UHDRS TFC Finance and ADL score, change from baseline","patients with HD [2]; 45 mg bid, BL TFC≥9 and CAG Repeats <44 and BL TMS 1st 3 Qs, week 26",0.74
same,"Δ to placebo: UHDRS TFC Finance and ADL score, change from baseline","patients with HD [2]; 45 mg bid, BL TFC≥9 or CAG Repeat >44, week 26",0.5
same,"Δ to placebo: UHDRS TFC Finance and ADL score, change from baseline","patients with HD [2]; 45 mg bid, CAG Repeats <44 and BL TMS 1st 3 Qs, week 26",0.59
same,"Δ to placebo: UHDRS TFC Finance and ADL score, change from baseline","patients with HD [2]; 45 mg bid, TMS 1st 2Qs, week 26",0.48
same,"Δ to placebo: UHDRS TFC Finance and ADL score, change from baseline","patients with HD [2]; 45 mg bid, TMS 1st 2Qs, week 52",0.47
same,"Δ to placebo: UHDRS TFC Finance and ADL score, change from baseline","patients with HD [2]; 45 mg bid, TMS 1st 3Qs, week 26",0.18
same,"Δ to placebo: UHDRS TFC Finance and ADL score, change from baseline","patients with HD [2]; 45 mg bid, TMS 1st 3Qs, week 52",0.52
same,"Δ to placebo: UHDRS TFC Finance and ADL score, change from baseline","patients with HD [2]; 45 mg bid, TMS 1st Q, week 26",0.63
same,"Δ to placebo: UHDRS TFC Finance and ADL score, change from baseline","patients with HD [2]; 45 mg bid, TMS 1st Q, week 52",0.71
same,"Change from baseline in UHDRS TFC Finance ADL, Δ to placebo","patients with HD [2]; 45 mg bid, Week 26, ALL",0.22
same,"UHDRS TFC Finance ADL, change from baseline, Δ to placebo","patients with HD [2]; 45 mg bid, Week 26, BL TFC<7, p value 0.3239",−0.34
same,"UHDRS TFC Finance ADL, change from baseline, Δ to placebo","patients with HD [2]; 45 mg bid, Week 26, BL TFC≥7, p value 0.0114",0.46
same,"Change from baseline in UHDRS TFC Finance ADL, Δ to placebo",patients with HD [2]; [3],0.92
same,"Change from baseline in UHDRS TFC Finance ADL, Δ to placebo","patients with HD [2]; 45 mg bid, Week 26, Stage 2 BL TFC 7-10 (FIG. 11c)",0.33
same,"Change from baseline in UHDRS TFC Finance ADL, Δ to placebo","patients with HD [2]; 45 mg bid, Week 26, Stage 2 BL TFC 7-10 (FIG. 11f)",0.7
same,"Change from baseline in UHDRS TFC Finance ADL, Δ to placebo","patients with HD [2]; 45 mg bid, Week 52, ALL",0.46
same,"UHDRS TFC Finance ADL, change from baseline, Δ to placebo","patients with HD [2]; 45 mg bid, Week 52, BL TFC<7, p value 0.9863",0.01
same,"UHDRS TFC Finance ADL, change from baseline, Δ to placebo","patients with HD [2]; 45 mg bid, Week 52, BL TFC≥7, p value 0.0004",0.72
same,"Change from baseline in UHDRS TFC Finance ADL, Δ to placebo",patients with HD [2]; [4],0.77
same,"Δ to placebo: UHDRS TFC Finance and ADL score, change from baseline","patients with HD [2]; 67.5 mg bid, BL CAG Repeat >44, week 26",0.21
same,"Δ to placebo: UHDRS TFC Finance and ADL score, change from baseline","patients with HD [2]; 67.5 mg bid, BL TFC≥9, week 26",0.23
same,"Δ to placebo: UHDRS TFC Finance and ADL score, change from baseline","patients with HD [2]; 67.5 mg bid, BL TFC≥9 and BL TMS 1st 3 Qs, week 26",0.18
same,"Δ to placebo: UHDRS TFC Finance and ADL score, change from baseline","patients with HD [2]; 67.5 mg bid, BL TFC≥9 and CAG Repeat >44, week 26",0.57
same,"Δ to placebo: UHDRS TFC Finance and ADL score, change from baseline","patients with HD [2]; 67.5 mg bid, BL TFC≥9 and CAG Repeats <44 and BL TMS 1st 3 Qs, week 26",0.57
same,"Δ to placebo: UHDRS TFC Finance and ADL score, change from baseline","patients with HD [2]; 67.5 mg bid, BL TFC≥9 or CAG Repeat >44, week 26",0.08

# From US11207310B2 (PRILENIA NEUROTHERAPEUTICS LTD., priority 2016, dated 2021)
